For two compounds, LVFS, LVEF and lung coefficient results are on record in US12692232B2, “Indole carboxamide compound, preparation therefor and use thereof” (NANJING RUISHUNING MEDICAL TECHNOLOGY CO., LTD., priority 2021, dated 2026).

The test deals with lipopolysaccharide (LPS)-induced mouse model of sepsis. Nature of the test: LPS-induced mouse model of sepsis, cardiopulmonary injury. Conditions: 4 hours after LPS 40 mg/kg; for LVFS: model 15.2 ± 2.8; for LVEF: model 34.3 ± 2.9; for lung coefficient: LPS model 7.24%±0.21%. It is filed as in vivo. As for the experimental part: A lipopolysaccharide (LPS)-induced mouse model of sepsis was used to determine the preventive and therapeutic effect of the compounds of the present invention (as exemplified by compound 1-1 obtained in Example 1) on cardiopulmonary injury caused by sepsis. The method was as follows:
Grouping of animals: 50 male C57BL/6J mice aged 6-8 weeks. The mice were randomly divided into 5 groups of 10 mice each, namely, i) a solvent control group: each animal was administered 0.9% saline; ii) a sepsis model group (LPS group): each animal was injected intraperitoneally with LPS at a dose of 40 mg/kg; iii) a treatment group of medium-dose compound 1-1 of Example (LPS+25 mg/kg of compound 1-1 obtained in Example 1): each animal was administered compound 1-1 by gavage at a dose of 25 mg/kg, followed by intraperitoneal injection of LPS at a dose of 40 mg/kg 30 minutes later; iv) a treatment group of high-dose compound 1-1 of Example 1 (LPS+50 mg/kg of compound 1-1 group obtained in Example 1): each animal was administered compound 1-1 by gavage at a dose of 50 mg/kg, followed by intraperitoneal injection of LPS at a dose of 40 mg/kg 30 minutes later; v) a treatment group of medium-dose indole analogue 3-[(1-methyl-1H-indole-2-carbonyl)amino]propionic acid disclosed in CN2019107285315 (LPS+25 mg/kg of indole analogue 3-[(1-methyl-1H-indole-2-carbonyl)amino]propionic acid disclosed in CN2019107285315): each animal was administered the indole analogue by gavage at a dose of 25 mg/kg, followed by intraperitoneal injection of LPS at a dose of 40 mg/kg 30 minutes later. 4 hours after LPS stimulation, follow-up examinations were performed in each group.
Assessment of cardiac function in mice: 4 animals from each group were used for this assay. Isoflurane was used to maintain proper anesthesia and spontaneous breathing in the mice. The mice were placed in the supine position on a constant temperature pad at 37° C., and the extremities of the mice were connected to four electrodes with conductive paste and fixed on the ultrasonic operating table. The probe was coated with ultrasound coupling agent, and placed in the lower middle part of the left sternum of the mice, and the short-axis M-mode echocardiographic images of the left ventricle adjacent to the sternum were acquired in real time. The dynamic images of 10 consecutive cardiac cycles were acquired using M-mode echocardiography, and the images were stored and analyzed offline. Left ventricular ejection fraction (LVEF) and left ventricular fraction shortening (LVFS) were calculated from left ventricular end diastolic diameter (LVEDD) and left ventricular end systolic diameter (LVESD), respectively, using the formulae: LVEF=(LVEDD^3−LVESD^3)/LVEDD^3×100% and LVFS=(LVEDD−LVESD)/LVEDD×100%.
Determination of lung coefficient: after weighting, the mice were anesthetized with pentobarbital sodium injection, and the whole lung was removed from the thorax, and the tissue around the lung was removed. Surface moisture and blood stains were wiped dry with filter paper, and the wet weight of the lung was weighed. Lung coefficient=lung wet weight […]/mouse body weight (g)×100%.
Histopathological observations: after the mice were anaesthetized with pentobarbital sodium injection, the lungs and ventricles were removed by thoracotomy and fixed in 10% neutral formaldehyde (pH=7.4) for 2 days. Routine paraffin embedding, serial sectioning, H&E staining, neutral balsam sealing and microscopic observation were performed.

Where the note is “medium-dose 25 mg/kg gavage”, `Cn1c(C(=O)NCCC(=O)O)cc2ccccc21` [3-[(1-methyl-1H-indole-2-carbonyl)amino]propionic acid, reference compound] came in with an LVFS of 22.9±4.0% and an LVEF of 53.2±3.8%. Also, the lung coefficient (medium-dose 25 mg/kg) was 5.48%±0.15%.

With `CC(=O)OCCCNC(=O)c1c(C=O)c2ccccc2n1C` [compound 1-1, propyl 3-[(3-formyl-1-methyl-1H-indole-2-carbonyl)amino]acetate], the LVFS is, setting by setting: (high-dose 50 mg/kg gavage) 30.7±2.2%; (medium-dose 25 mg/kg gavage) 24.5±2.6%. Also, the LVEF was determined as 63.8±3.9% (high-dose 50 mg/kg gavage) and 58.7±4.3% (medium-dose 25 mg/kg gavage). Also, the lung coefficient is listed as 4.93%±0.12% (high-dose 50 mg/kg) and 5.16%±0.19% (medium-dose 25 mg/kg).
